Experimental data reported in ChEMBL document CHEMBL4680251, “Discovery of a 2-pyridinyl urea-containing compound YD57 as a potent inhibitor of apoptosis signal-regulating kinase 1 (ASK1)” (Eur J Med Chem, 2020).
Calls of active or inactive are those of the source. The rule behind the calls is not given here.

Experiments:
[1] = biological target: T1, Mitogen-activated protein kinase kinase kinase 5 (Homo sapiens, UniProt Q99683); test: Inhibition of ASK1 (unknown origin)
T1 sequence (Q99683 whole entry): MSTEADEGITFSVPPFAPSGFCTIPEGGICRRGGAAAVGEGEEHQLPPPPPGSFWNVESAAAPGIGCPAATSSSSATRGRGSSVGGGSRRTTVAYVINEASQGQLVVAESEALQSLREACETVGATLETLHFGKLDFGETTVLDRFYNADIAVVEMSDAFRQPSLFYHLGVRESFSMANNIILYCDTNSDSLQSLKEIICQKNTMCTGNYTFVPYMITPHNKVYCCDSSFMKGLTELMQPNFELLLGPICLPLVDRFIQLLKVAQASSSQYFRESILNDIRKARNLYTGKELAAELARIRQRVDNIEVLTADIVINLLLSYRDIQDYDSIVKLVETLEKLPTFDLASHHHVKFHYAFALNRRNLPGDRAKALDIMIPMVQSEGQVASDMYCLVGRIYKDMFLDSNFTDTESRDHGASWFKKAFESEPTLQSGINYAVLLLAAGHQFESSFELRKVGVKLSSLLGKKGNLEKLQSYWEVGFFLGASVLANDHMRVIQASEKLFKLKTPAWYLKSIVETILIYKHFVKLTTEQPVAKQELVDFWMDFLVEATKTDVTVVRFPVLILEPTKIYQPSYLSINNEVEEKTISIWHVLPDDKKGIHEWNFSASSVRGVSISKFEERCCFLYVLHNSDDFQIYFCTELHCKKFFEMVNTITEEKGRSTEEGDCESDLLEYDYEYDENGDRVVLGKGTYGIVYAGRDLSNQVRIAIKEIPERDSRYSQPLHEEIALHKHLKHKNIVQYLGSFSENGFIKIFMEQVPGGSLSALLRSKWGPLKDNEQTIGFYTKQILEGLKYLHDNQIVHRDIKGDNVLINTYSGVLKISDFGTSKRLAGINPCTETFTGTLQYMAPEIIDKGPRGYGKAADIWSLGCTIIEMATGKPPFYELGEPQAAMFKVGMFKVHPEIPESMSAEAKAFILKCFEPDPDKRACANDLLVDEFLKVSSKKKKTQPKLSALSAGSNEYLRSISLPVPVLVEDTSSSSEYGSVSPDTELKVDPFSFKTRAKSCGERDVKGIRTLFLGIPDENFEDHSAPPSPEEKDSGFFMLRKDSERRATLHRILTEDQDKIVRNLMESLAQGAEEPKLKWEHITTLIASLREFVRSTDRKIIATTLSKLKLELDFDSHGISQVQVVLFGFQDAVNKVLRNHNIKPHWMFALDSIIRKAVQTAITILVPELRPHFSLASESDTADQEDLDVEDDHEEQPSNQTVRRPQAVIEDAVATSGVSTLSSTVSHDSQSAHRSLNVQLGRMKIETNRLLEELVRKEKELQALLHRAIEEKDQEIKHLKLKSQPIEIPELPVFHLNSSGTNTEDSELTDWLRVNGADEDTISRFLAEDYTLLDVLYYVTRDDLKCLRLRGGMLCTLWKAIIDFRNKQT

HepG2 [2] = test: Induction of cell cycle arrest in human HepG2 cells assessed as accumulation at G0/G1 phase at 16 uM incubated for 24 hrs by propidium iodide staining based flow cytometry (reference value: 38.34%); format: functional
HepG2 [3] = test: Induction of cell cycle arrest in human HepG2 cells assessed as accumulation at G0/G1 phase at 0.5 to 8 uM incubated for 24 hrs by propidium iodide staining based flow cytometry; format: functional; details: dose 0.5-8 µM
[4] = biological target: T2, Mitogen-activated protein kinase kinase kinase 7 (Homo sapiens, UniProt O43318); test: Inhibition of TAK1 (unknown origin)
T2 sequence (O43318 whole entry): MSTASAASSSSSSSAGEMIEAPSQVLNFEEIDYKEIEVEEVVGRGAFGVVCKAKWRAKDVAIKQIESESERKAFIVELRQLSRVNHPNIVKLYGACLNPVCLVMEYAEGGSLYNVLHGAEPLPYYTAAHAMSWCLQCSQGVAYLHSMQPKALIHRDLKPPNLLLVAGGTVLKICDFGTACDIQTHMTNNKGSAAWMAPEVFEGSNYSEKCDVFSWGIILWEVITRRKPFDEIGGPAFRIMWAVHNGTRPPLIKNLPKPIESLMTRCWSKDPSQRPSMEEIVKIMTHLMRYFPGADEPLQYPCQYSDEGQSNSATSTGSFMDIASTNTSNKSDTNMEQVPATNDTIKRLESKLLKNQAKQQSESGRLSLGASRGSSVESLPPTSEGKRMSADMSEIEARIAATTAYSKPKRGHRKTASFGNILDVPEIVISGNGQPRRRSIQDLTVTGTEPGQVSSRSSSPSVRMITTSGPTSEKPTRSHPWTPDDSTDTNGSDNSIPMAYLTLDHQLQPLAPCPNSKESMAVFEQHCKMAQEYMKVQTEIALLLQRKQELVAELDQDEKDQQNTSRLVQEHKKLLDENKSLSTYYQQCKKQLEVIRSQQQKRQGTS

[5] = biological target: T3, Mitogen-activated protein kinase kinase kinase 6 (Homo sapiens, UniProt O95382); test: Inhibition of ASK2 (unknown origin)
T3 sequence (O95382 whole entry): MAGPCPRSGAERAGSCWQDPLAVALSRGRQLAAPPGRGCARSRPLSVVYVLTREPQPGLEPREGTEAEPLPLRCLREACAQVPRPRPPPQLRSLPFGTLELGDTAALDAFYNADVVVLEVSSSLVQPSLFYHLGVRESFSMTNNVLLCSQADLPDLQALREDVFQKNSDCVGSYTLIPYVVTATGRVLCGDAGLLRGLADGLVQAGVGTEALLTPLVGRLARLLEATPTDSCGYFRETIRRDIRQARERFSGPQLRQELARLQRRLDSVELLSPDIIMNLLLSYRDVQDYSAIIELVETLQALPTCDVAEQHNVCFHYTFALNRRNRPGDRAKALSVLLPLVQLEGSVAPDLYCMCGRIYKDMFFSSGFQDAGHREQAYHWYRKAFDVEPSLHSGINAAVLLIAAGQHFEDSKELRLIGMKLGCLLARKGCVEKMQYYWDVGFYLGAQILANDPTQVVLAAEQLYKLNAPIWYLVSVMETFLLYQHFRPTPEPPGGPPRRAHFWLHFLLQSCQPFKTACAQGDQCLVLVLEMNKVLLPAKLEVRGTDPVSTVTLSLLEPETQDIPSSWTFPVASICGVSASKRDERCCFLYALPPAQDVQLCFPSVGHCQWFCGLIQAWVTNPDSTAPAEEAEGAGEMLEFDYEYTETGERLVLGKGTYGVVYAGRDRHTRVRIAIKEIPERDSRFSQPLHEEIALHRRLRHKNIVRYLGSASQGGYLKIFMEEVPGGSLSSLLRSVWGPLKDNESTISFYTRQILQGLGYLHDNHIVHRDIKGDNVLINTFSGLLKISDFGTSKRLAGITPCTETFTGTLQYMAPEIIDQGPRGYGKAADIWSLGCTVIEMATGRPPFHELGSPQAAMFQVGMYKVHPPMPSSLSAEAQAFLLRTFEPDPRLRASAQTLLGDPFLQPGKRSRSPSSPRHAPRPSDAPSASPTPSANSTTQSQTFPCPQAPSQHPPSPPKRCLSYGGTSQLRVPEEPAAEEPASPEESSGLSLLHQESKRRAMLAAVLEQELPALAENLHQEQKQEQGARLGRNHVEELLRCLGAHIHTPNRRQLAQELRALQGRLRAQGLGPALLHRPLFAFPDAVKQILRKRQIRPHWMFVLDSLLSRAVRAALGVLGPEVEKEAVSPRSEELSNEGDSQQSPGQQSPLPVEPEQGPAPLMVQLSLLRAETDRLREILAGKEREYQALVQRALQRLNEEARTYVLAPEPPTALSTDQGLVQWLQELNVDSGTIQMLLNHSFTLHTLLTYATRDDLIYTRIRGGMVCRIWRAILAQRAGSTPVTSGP

[6] = Inhibition of human full length recombinant CDK9/cyclin T1 using KTFCGTPEYLAPE as substrate incubated for 40 mins in presence of [gamma-33ATP] by radiometric scintillation counting analysis

Structure (SMILES) | IC50 [1] | IC50 [4] | IC50 [5] | other results
CC(C)n1cnnc1-c1cccc(NC(=O)Oc2ccccc2)n1 | > 10000 nM |  |  | 
Cc1cc(NC(=O)Nc2cccc(-c3nncn3C(C)C)n2)n(C)n1 | 4140 nM |  |  | 
CC(C)n1cnnc1-c1cccc(NC(=O)Nc2ccnc3ccccc23)n1 | 3260 nM |  |  | 
CC(C)n1cnnc1-c1cccc(NC(=O)Nc2cccc(-c3cnn(C)c3)c2)n1 | 2120 nM |  |  | 
Cc1cc(F)c(C(=O)Nc2cccc(-c3nncn3C(C)C)n2)cc1-n1cnc(C2CC2)c1 |  |  |  | Activity (HepG2 [2]): Active; Activity (HepG2 [3]): inactive
CC(C)n1cnnc1-c1cccc(NC(=O)Nc2ncnc3ccccc23)n1 | 71 nM | 421 nM | 1480 nM | 
CC(C)n1cnnc1-c1cccc(NC(=O)Nc2nn(C)c3ccccc23)n1 | 259 nM |  |  | 
CC(C)n1cnnc1-c1cccc(NC(=O)Nc2ccccc2)n1 | 2840 nM |  |  | 
CC(C)n1cnnc1-c1cccc(NC(=O)Nc2cc3ccccc3cn2)n1 | 50.6 nM | 1360 nM | 1590 nM | 
CC(C)c1cc(NC(=O)Nc2cccc(-c3nncn3C(C)C)n2)[nH]n1 | 393 nM |  |  | 
CC(C)n1cnnc1-c1cccc(NC(=O)Nc2cnc3ccccn23)n1 | > 10000 nM |  |  | 
CC(C)n1cnnc1-c1cccc(NC(=O)N(C)c2ccc3ccccc3n2)n1 | 319 nM |  |  | 
Cc1cc(NC(=O)Nc2cccc(-c3nncn3C(C)C)n2)nn1C | 143 nM |  |  | 
CC(C)n1cnnc1-c1cccc(NC(=O)Nc2cnn(C)c2)n1 | 1860 nM |  |  | 
CC(C)n1cnnc1-c1cccc(NC(=O)Nc2cccnc2)n1 | 1210 nM |  |  | 
CC(C)n1cnnc1-c1cccc(NC(=O)Nc2nc3ccccc3[nH]2)n1 | 111 nM |  |  | 
C[C@H](CO)n1cnnc1-c1cccc(NC(=O)Nc2ncc3ccccc3n2)n1 | 81 nM | 5770 nM | 7170 nM | 
CC(C)n1cnnc1-c1cccc(NC(=O)Nc2ccc3ccccc3n2)n1 | 69.1 nM | 4560 nM | 2340 nM | 
Cc1cc(NC(=O)Nc2cccc(-c3nncn3C(C)C)n2)[nH]n1 | 142 nM |  |  | 
CC(C)n1cnnc1-c1cccc(NC(=O)Nc2cc3ccccn3n2)n1 | 85.3 nM | > 10000 nM | 4990 nM | 
CC(C)n1cnnc1-c1cccc(NC(=O)OCc2ccccc2)n1 | 1520 nM |  |  | 
CC(C)n1cnnc1-c1cccc(NC(=O)Nc2ncc3ccccc3n2)n1 | 65.7 nM | 4220 nM | 2910 nM | 

Structure (SMILES) | IC50 [1] | IC50 [4] | IC50 [5] | other results
CCc1cc(NC(=O)Nc2cccc(-c3nncn3C(C)C)n2)[nH]n1 | 153 nM |  |  | 
C[C@H](CO)n1cnnc1-c1cccc(NC(=O)Nc2cnc3ccccc3n2)n1 | 114 nM | > 10000 nM | > 10000 nM | 
CC(C)n1cnnc1-c1cccc(NC(=O)Nc2cc(C3CC3)nn2C)n1 | > 10000 nM |  |  | 
CC(C)OC(=O)Nc1cccc(-c2nncn2C(C)C)n1 | 473 nM |  |  | 
CN[C@@H]1C[C@H]2O[C@@](C)([C@@H]1OC)n1c3ccccc3c3c4c(c5c6ccccc6n2c5c31)C(=O)NC4 [STAUROSPORINE] |  |  |  | IC50 [6]: 60.1 nM
CC(C)n1cnnc1-c1cccc(NC(=O)Nc2ccn[nH]2)n1 | 66.7 nM |  |  | 
CC(C)n1cnnc1-c1cccc(NC(=O)Nc2ccncc2)n1 | 337 nM |  |  | 
CC(C)n1cnnc1-c1cccc(NC(=O)Nc2ccc(-c3ccn(C)n3)cn2)n1 | 64.2 nM | 2220 nM | 2780 nM | 
CC(C)n1cnnc1-c1cccc(NC(=O)Nc2cc(C3CC3)n[nH]2)n1 | 124 nM |  |  | 
CC(C)n1cnnc1-c1cccc(NC(=O)Nc2cnn3ccccc23)n1 | 3650 nM |  |  | 
CC(C)n1cnnc1-c1cccc(NC(=O)NCc2ccccc2)n1 | 7020 nM |  |  | 
CC(C)n1cnnc1-c1cccc(NC(=O)Nc2ccc(-c3cnn(C)c3)cn2)n1 | 64.2 nM |  |  | 
C[C@H](CO)n1cnnc1-c1cccc(NC(=O)Nc2ccc3ccccc3n2)n1 | 47.4 nM | 1880 nM | 2860 nM | 
CC(C)n1cnnc1-c1cccc(NC(=O)Nc2ccc(-c3cnn(C)c3)cc2)n1 | 245 nM |  |  | 
CC(C)n1cnnc1-c1cccc(N(C)C(=O)N(C)c2cc3ccccn3n2)n1 | 6640 nM |  |  | 
CC(C)n1cnnc1-c1cccc(NC(=O)Nc2nccc3ccccc23)n1 | 48.5 nM | 85.2 nM | 201 nM | 
CC(C)n1cnnc1-c1cccc(NC(=O)Nc2cncc3ccccc23)n1 | > 10000 nM |  |  | 
CC(C)n1cnnc1-c1cccc(NC(=O)Nc2cnc3ccccc3n2)n1 | 58 nM | 6800 nM | 4860 nM | 
CC(C)n1cnnc1-c1cccc(NC(=O)Nc2cnccn2)n1 | 90.3 nM |  |  | 
C[C@H](CO)n1cnnc1-c1cccc(NC(=O)Nc2nccc3ccccc23)n1 | 37.9 nM | 63.7 nM | 264 nM | 
CC(C)n1cnnc1-c1cccc(NC(=O)Nc2ncc3[nH]cnc3n2)n1 | 32.6 nM | 1210 nM | 742 nM | 
CC(C)n1cnnc1-c1cccc(NC(=O)Nc2ccccn2)n1 | 43.4 nM | 734 nM | 1090 nM | 
